Reference: patent US20230416329A1, “A PEPTIDE WITH DISULFIDE BONDS AND INHIBITORY ACTIVITY AGAINST SERINE PROTEASES, DERIVED HYBRID PEPTIDES THEREOF, AND USES THEREOF” (INSTITUTE OF MATERIA MEDICA , CHINESE ACADEMY OF MEDICAL …, priority 2020, published 2023)
Bridge positions count the residues as written; N and C are the ends. Ends that are not written are not given here.

Columns and labels:
[1] = molecular target: T1, interaction of PCSK9-LDLR (Homo sapiens, UniProt Q8NBP7); assay: PCSK9-LDLR in vitro binding assay (inhibitory rate); conditions: in vitro
T1 construct: purchased MBL Company, Beijing, China CY-8150
Procedure: Polypeptide PCSK9_1-14 (SEQ ID NOs: 210-223) is dissolved in pure water or DMSO. 85 μL reaction buffer, 5 μL 1 mM polypeptide sample and 10 μL 750 ng/mL PCSK9 protein was pre-incubated at room temperature for 20 minutes before being added to a 96 well plate. The OD450/540 nm value was measured according to the instructions of the PCSK9-LDLR in Vitro Binding Assay Kit (CY-8150, MBL Company, Beijing, China). Solvent control: replace polypeptide with 5 μL solvent. In 100 μL reaction system, the final concentration of the polypeptide and PCSK9 is 50 μM and 75 ng/mL, respectively.
Inhibition rate of polypeptide (%)=(OD450/540 nm(solvent control)−OD450/540 nm (sample))/OD450/540 nm(solvent control)×100

[2] = system: P407-induced hyperlipidemia mice; assay: Subcutaneous injection of PCSK9 inhibitory peptide, serum total cholesterol in P407-induced hyperlipidemia mice; type: in vivo, mouse; conditions: for TC 15 min: 15 min after administration; for TC 30 min: 30 min after administration; for TC 60 min: 60 min after administration; for TC 90 min: 90 min after administration; for serum total cholesterol (TC) level after subcutaneous injection (in words): 2 μmol/kg single s.c., P407-induced hyperlipidemia mice
Procedure: The experimental peptide sample was prepared using PEG400 with a final concentration of […], and the final concentration of PEG400 is 20% (w/v). Normal ICR mice were fasted overnight with water ad libitum. The next day, all of the mice were randomly divided into model control group (Con) and polypeptide administration group (2 μmol/kg) according to body weight. Then, all of the mice were intraperitoneally injected with P407 (500 mg/kg) and fed with feed 2 hours later. Six mice were taken as a normal control group (Nor). After 24 hours, the mice in Con were subcutaneously injected with saline containing 20% PEG400, and the mice in the treatment group were given peptides. Then, the blood was taken at different time points after administration to determine the serum total cholesterol (TC) level. In consideration of the complexity of factors affecting serum LDL-C levels, especially the differences between single and long-term administration, the in vivo activity of PCSK9 inhibitory peptide is mainly observed for changes in serum TC levels.

[3] = serum, subcutaneous 2 μmol/kg, mean ± sd

| inhibitory activity on the interaction between PCSK9 and LDLR (in words) ([1]; listed as SEQ ID NO: 233) | inhibitory activity on the interaction between PCSK9 and LDLR (in words) ([1]; listed as SEQ ID NO: 232) | inhibitory activity on the interaction between PCSK9 and LDLR (in words) ([1]; listed as SEQ ID NO: 211) | inhibitory activity on the interaction between PCSK9 and LDLR (in words) ([1]; listed as SEQ ID NO: 225) | inhibitory activity on the interaction between PCSK9 and LDLR (in words) ([1]; listed as SEQ ID NO: 224) | inhibitory activity on the interaction between PCSK9 and LDLR (in words) ([1]; listed as SEQ ID NO: 214) | inhibitory activity on the interaction between PCSK9 and LDLR (in words) ([1]; listed as SEQ ID NO: 229) | inhibitory activity on the interaction between PCSK9 and LDLR (in words) ([1]; listed as SEQ ID NO: 228) | Substance | inhibitory activity on the interaction between PCSK9 and LDLR (in words) [1] | TC 15 min [2, 3] | TC 30 min [2, 3] | TC 60 min [2, 3] | TC 90 min [2, 3] | TC 120 min ([2]; serum, subcutaneous 2 μmol/kg, 120 min after administration, mean ± sd) | serum total cholesterol (TC) level after subcutaneous injection (in words) [2] | serum total cholesterol (TC) level after subcutaneous injection (in words) ([2]; listed as SEQ ID NO: 214) | serum total cholesterol (TC) level after subcutaneous injection (in words) ([2]; listed as SEQ ID NO: 229) |
| --- | --- | --- | --- | --- | --- | --- | --- | --- | --- | --- | --- | --- | --- | --- | --- | --- | --- |
| good inhibitory effects in vitro |  |  |  |  |  |  |  | Thr-Val-Phe-Thr-Ser-Gly-Ile-Cys-Thr-Ala-Ser-Ile-Pro-Pro-Ile-Cys-Gln-Trp-Glu-Glu-Tyr-Leu-Asp-Trp-Val (TVFTSGICTASIPPICQWEEYLDWV; disulfide 8-16 (inferred)) [PCSK9_9EC] | good inhibitory activity on the interaction between PCSK9 and LDLR | 2789 ± 797 µg/mL | 2744 ± 909 µg/mL | 2676 ± 783 µg/mL | 2657 ± 838 µg/mL |  |  |  |  |
|  | good inhibitory effects in vitro |  |  |  |  |  |  | Thr-Val-Phe-Thr-Ser-Gly-Phe-Cys-Thr-Tyr-Ser-Ile-Pro-Pro-Gln-Cys-Tyr-Gly-Trp-Glu-Glu-Tyr-Leu-Asp-Trp-Val (TVFTSGFCTYSIPPQCYGWEEYLDWV; disulfide 8-16 (inferred)) [PCSK9_9CH] | good inhibitory activity on the interaction between PCSK9 and LDLR | 3727 ± 1154 µg/mL | 4212 ± 753 µg/mL | 3658 ± 664 µg/mL | 2891 ± 710 µg/mL |  |  |  |  |
|  |  | good inhibitory effects in vitro |  |  |  |  |  | Thr-Val-Phe-Thr-Ser-Trp-Glu-Glu-Ala-Leu-Asp-Trp-Val-Cys-Gly-Arg-Ala-Thr-Lys-Ser-Ile-Pro-Pro-Ile-Cys-Phe (TVFTSWEEALDWVCGRATKSIPPICF; disulfide 14-25 (inferred)) [PCSK9_2] | good inhibitory activity on the interaction between PCSK9 and LDLR |  | 3079 ± 1081 µg/mL | 3178 ± 1039 µg/mL | 3078 ± 1044 µg/mL | 295.5 ± 95.4 mg/dL |  |  |  |
|  |  |  | good inhibitory effects in vitro |  |  |  |  | Thr-Val-Phe-Thr-Ser-Trp-Glu-Glu-Ala-Leu-Asp-Trp-Val-Gly-Ile-Cys-Thr-Ala-Ser-Ile-Pro-Pro-Ile-Cys-Gln (TVFTSWEEALDWVGICTASIPPICQ-OH; disulfide 16-24 (inferred)) [PCSK9_2EC] | good inhibitory activity on the interaction between PCSK9 and LDLR | 2954 ± 455 µg/mL | 2859 ± 535 µg/mL | 2853 ± 487 µg/mL | 2757 ± 475 µg/mL |  |  |  |  |
|  |  |  |  | good inhibitory effects in vitro |  |  |  | Thr-Val-Phe-Thr-Ser-Trp-Glu-Glu-Ala-Leu-Asp-Trp-Val-Gly-Phe-Cys-Thr-Tyr-Ser-Ile-Pro-Pro-Gln-Cys-Tyr-Gly (TVFTSWEEALDWVGFCTYSIPPQCYG-OH; disulfide 16-24 (inferred)) [PCSK9_2CH] | good inhibitory activity on the interaction between PCSK9 and LDLR | 2772 ± 762 µg/mL | 2586 ± 700 µg/mL | 2737 ± 762 µg/mL | 2489 ± 760 µg/mL |  |  |  |  |
|  |  |  |  |  | good inhibitory effects in vitro |  |  | Trp-Glu-Glu-Ala-Leu-Asp-Trp-Val-Cys-Gly-Arg-Ala-Thr-Lys-Ser-Ile-Pro-Pro-Ile-Cys-Phe-Gly-Thr-Val-Phe-Thr-Ser (WEEALDWVCGRATKSIPPICFGTVFTS; disulfide 9-20 (inferred)) [PCSK9_5] | good inhibitory activity on the interaction between PCSK9 and LDLR | 3050 ± 524 µg/mL | 3236 ± 542 µg/mL | 3089 ± 523 µg/mL | 2980 ± 591 µg/mL |  | reduced serum TC level | excellent lowering lipid (total cholesterol) activities in vivo |  |
|  |  |  |  |  |  | good inhibitory effects in vitro |  | Trp-Glu-Glu-Ala-Leu-Asp-Trp-Val-Gly-Ile-Cys-Thr-Ala-Ser-Ile-Pro-Pro-Ile-Cys-Gln-Gly-Thr-Val-Phe-Thr-Ser (WEEALDWVGICTASIPPICQGTVFTS; disulfide 11-19 (inferred)) [PCSK9_5EC] | good inhibitory activity on the interaction between PCSK9 and LDLR | 2669 ± 520 µg/mL | 2231 ± 795 µg/mL | 2577 ± 466 µg/mL | 2532 ± 425 µg/mL |  | reduced serum TC level |  | excellent lowering lipid (total cholesterol) activities in vivo |
|  |  |  |  |  |  |  | good inhibitory effects in vitro | Trp-Glu-Glu-Ala-Leu-Asp-Trp-Val-Gly-Phe-Cys-Thr-Tyr-Ser-Ile-Pro-Pro-Gln-Cys-Tyr-Gly-Thr-Val-Phe-Thr-Ser (WEEALDWVGFCTYSIPPQCYGTVFTS; disulfide 11-19 (inferred)) [PCSK9_5CH] | good inhibitory activity on the interaction between PCSK9 and LDLR | 3002 ± 716 µg/mL | 3067 ± 685 µg/mL | 3023 ± 1035 µg/mL | 2705 ± 741 µg/mL |  |  |  |  |
